This assay concerns the target Cyclin-dependent kinase 2 (CDK2) (Homo sapiens, UniProt P24941).

As for `Nc1ncnc2c1ncn2[C@@H]1O[C@H](COP(=O)(O)OP(=O)(O)OP(=O)(O)O)[C@@H](O)[C@H]1O` [ATP], the Km was approximately 100 µM.

Usually Km stands for the substrate concentration at which the rate is half of its maximum.

Source of the values: PMC3446636 (2012).
